Source: ChEMBL document CHEMBL3414487, “Synthesis and biological activity of salinomycin conjugates with floxuridine” (Eur J Med Chem, 2015)
pIC50: −log10 of the molar value. ≈ marks a conversion by molar mass, not a printed value.

How the values were obtained:
[1] = system: Staphylococcus aureus; assay: Antimicrobial activity against methicillin-resistant Staphylococcus aureus 452/11 after 18 hrs by two-fold serial microdilution method; assay type: functional; conditions: 452/11, 18 h
[2] = system: HL-60; assay: Selectivity index, ratio of IC50 for mouse BALB/3T3 cells to IC50 for human HL60 cells; assay type: functional
[3] = Selectivity index, ratio of IC50 for mouse BALB/3T3 cells to IC50 for human LoVo/DX cells; assay type: functional
[4] = Antiproliferative activity against human SW707 cells assessed as growth inhibition after 72 hrs by SRB method; assay type: functional, cell-based; conditions: Homo sapiens, SW707, 72 h
[5] = system: LoVo; assay: Selectivity index, ratio of IC50 for mouse BALB/3T3 cells to IC50 for human LoVo cells; assay type: functional
[6] = system: Staphylococcus aureus; assay: Antimicrobial activity against methicillin-resistant Staphylococcus aureus 456/11 after 18 hrs by two-fold serial microdilution method; assay type: functional; conditions: 456/11, 18 h
[7] = Selectivity index, ratio of IC50 for mouse BALB/3T3 cells to IC50 for human LS180 cells; assay type: functional
[8] = system: Staphylococcus epidermidis; assay: Antimicrobial activity against methicillin-resistant Staphylococcus epidermidis 489/11 after 18 hrs by two-fold serial microdilution method; assay type: functional; conditions: 489/11, 18 h
[9] = system: Staphylococcus epidermidis; assay: Antimicrobial activity against methicillin-resistant Staphylococcus epidermidis 459/11 after 18 hrs by two-fold serial microdilution method; assay type: functional; conditions: 459/11, 18 h
[10] = system: Staphylococcus aureus; assay: Antimicrobial activity against methicillin-resistant Staphylococcus aureus 537/12 after 18 hrs by two-fold serial microdilution method; assay type: functional; conditions: 537/12, 18 h
[11] = system: BALB/3T3; assay: Antiproliferative activity against mouse BALB/3T3 cells assessed as growth inhibition after 72 hrs by SRB method; assay type: cell-based; conditions: BALB/3T3, 72 h
[12] = system: Staphylococcus aureus; assay: Antimicrobial activity against Staphylococcus aureus ATCC 29213 after 18 hrs by two-fold serial microdilution method; assay type: functional; conditions: ATCC 29213, 18 h
[13] = Selectivity index, ratio of IC50 for mouse BALB/3T3 cells to IC50 for human SW707 cells; assay type: functional
[14] = system: Staphylococcus epidermidis; assay: Antimicrobial activity against methicillin-resistant Staphylococcus epidermidis 460/11 after 18 hrs by two-fold serial microdilution method; assay type: functional; conditions: 460/11, 18 h
[15] = system: Staphylococcus aureus; assay: Antimicrobial activity against methicillin-resistant Staphylococcus aureus 586/12 after 18 hrs by two-fold serial microdilution method; assay type: functional; conditions: 586/12, 18 h
[16] = system: LoVo; assay: Resistance index, ratio of IC50 for human LoVo/DX cells to IC50 for human LoVo cells
[17] = system: LoVo; assay: Antiproliferative activity against human LoVo cells assessed as growth inhibition after 72 hrs by SRB method; assay type: functional, cell-based; conditions: Homo sapiens, LoVo, 72 h
[18] = system: Staphylococcus aureus; assay: Antimicrobial activity against methicillin-resistant Staphylococcus aureus 585/12 after 18 hrs by two-fold serial microdilution method; assay type: functional; conditions: 585/12, 18 h
[19] = system: Staphylococcus epidermidis; assay: Antimicrobial activity against methicillin-resistant Staphylococcus epidermidis 470/11 after 18 hrs by two-fold serial microdilution method; assay type: functional; conditions: 470/11, 18 h
[20] = Antiproliferative activity against human HL60 cells assessed as growth inhibition after 72 hrs by MTT assay; assay type: functional, cell-based; conditions: HL-60, 72 h
[21] = Antiproliferative activity against human LS180 cells assessed as growth inhibition after 72 hrs by SRB method; assay type: functional, cell-based; conditions: Homo sapiens, LS180, 72 h
[22] = system: Staphylococcus aureus; assay: Antimicrobial activity against Staphylococcus aureus ATCC 25923 after 18 hrs by two-fold serial microdilution method; assay type: functional; conditions: ATCC 25923, 18 h
[23] = system: Staphylococcus epidermidis; assay: Antimicrobial activity against methicillin-resistant Staphylococcus epidermidis 488/11 after 18 hrs by two-fold serial microdilution method; assay type: functional; conditions: 488/11, 18 h
[24] = system: Staphylococcus aureus; assay: Antimicrobial activity against Staphylococcus aureus ATCC 6538 after 18 hrs by two-fold serial microdilution method; assay type: functional; conditions: ATCC 6538, 18 h
[25] = system: Staphylococcus epidermidis; assay: Antimicrobial activity against methicillin-resistant Staphylococcus epidermidis 468/11 after 18 hrs by two-fold serial microdilution method; assay type: functional; conditions: 468/11, 18 h
[26] = system: Staphylococcus aureus; assay: Antimicrobial activity against methicillin-resistant Staphylococcus aureus 522/12 after 18 hrs by two-fold serial microdilution method; assay type: functional; conditions: 522/12, 18 h
[27] = system: Staphylococcus aureus; assay: Antimicrobial activity against methicillin-resistant Staphylococcus aureus 572/12 after 18 hrs by two-fold serial microdilution method; assay type: functional; conditions: 572/12, 18 h
[28] = system: HT-29; assay: Selectivity index, ratio of IC50 for mouse BALB/3T3 cells to IC50 for human HT-29 cells; assay type: functional
[29] = system: Staphylococcus aureus; assay: Antimicrobial activity against methicillin-resistant Staphylococcus aureus 573/12 after 18 hrs by two-fold serial microdilution method; assay type: functional; conditions: 573/12, 18 h
[30] = system: Staphylococcus epidermidis; assay: Antimicrobial activity against methicillin-resistant Staphylococcus epidermidis 469/11 after 18 hrs by two-fold serial microdilution method; assay type: functional; conditions: 469/11, 18 h
[31] = system: Staphylococcus aureus; assay: Antimicrobial activity against methicillin-resistant Staphylococcus aureus 462/11 after 18 hrs by two-fold serial microdilution method; assay type: functional; conditions: 462/11, 18 h
[32] = system: Staphylococcus epidermidis; assay: Antimicrobial activity against methicillin-resistant Staphylococcus epidermidis 467/11 after 18 hrs by two-fold serial microdilution method; assay type: functional; conditions: 467/11, 18 h
[33] = Antiproliferative activity against human doxorubicin-resistant LoVo/DX cells assessed as growth inhibition after 72 hrs by SRB method; assay type: functional, cell-based
[34] = system: Staphylococcus aureus; assay: Antimicrobial activity against methicillin-resistant Staphylococcus aureus 514/11 after 18 hrs by two-fold serial microdilution method; assay type: functional; conditions: 514/11, 18 h
[35] = system: Staphylococcus epidermidis; assay: Antimicrobial activity against methicillin-resistant Staphylococcus epidermidis 461/11 after 18 hrs by two-fold serial microdilution method; assay type: functional; conditions: 461/11, 18 h
[36] = system: Staphylococcus epidermidis; assay: Antimicrobial activity against Staphylococcus epidermidis ATCC 12228 after 18 hrs by two-fold serial microdilution method; assay type: functional; conditions: ATCC 12228, 18 h
[37] = Antiproliferative activity against human vincristine-resistant HL60/Vinc cells assessed as growth inhibition after 72 hrs by MTT assay; assay type: functional
[38] = system: Staphylococcus epidermidis; assay: Antimicrobial activity against Staphylococcus epidermidis ATCC 35984 after 18 hrs by two-fold serial microdilution method; assay type: functional; conditions: ATCC 35984, 18 h
[39] = system: Staphylococcus epidermidis; assay: Antimicrobial activity against methicillin-resistant Staphylococcus epidermidis 466/11 after 18 hrs by two-fold serial microdilution method; assay type: functional; conditions: 466/11, 18 h
[40] = system: HT-29; assay: Antiproliferative activity against human HT-29 cells assessed as growth inhibition after 72 hrs by SRB method; assay type: functional, cell-based; conditions: Homo sapiens, HT-29, 72 h
[41] = system: Staphylococcus aureus; assay: Antimicrobial activity against Staphylococcus aureus […] 4163 after 18 hrs by two-fold serial microdilution method; assay type: functional
[42] = system: HL-60; assay: Resistance index, ratio of IC50 for human HL60/Vinc cells to IC50 for human HL60 cells
[43] = Selectivity index, ratio of IC50 for mouse BALB/3T3 cells to IC50 for human HL60/Vinc cells; assay type: functional

In the case of `CC[C@@H](C(=O)[C@@H](C)[C@@H](O)[C@H](C)[C@@H]1O[C@@H]([C@@H](CC)C(=O)NCc2cn([C@H]3C[C@H](n4cc(F)c(=O)[nH]c4=O)O[C@@H]3CO)nn2)CC[C@@H]1C)[C@H]1O[C@]2(C=C[C@@H](O)[C@]3(CC[C@@](C)([C@H]4CC[C@](O)(CC)[C@H](C)O4)O3)O2)[C@H](C)C[C@@H]1C`, the MIC [1] was 60.4 µM (≈ 64 µg/mL), the “Selectivity Index” value [2] was 1.03 and the “Selectivity Index” value [3] was 0.42. For the same compound, the pIC50 [4] was 4.46, the “Selectivity Index” value [5] was 0.72 and the MIC [6] was 60.4 µM (≈ 64 µg/mL). For the same compound, the “Selectivity Index” value [7] was 0.9, the MIC [8] was 30.2 µM (≈ 32 µg/mL) and the MIC [9] was 30.2 µM (≈ 32 µg/mL). For the same compound, the MIC [10] was 242 µM (≈ 256 µg/mL), the pIC50 [11] was 4.53 and the MIC [12] was 60.4 µM (≈ 64 µg/mL). The “Selectivity Index” value [13] was 0.85, the MIC [14] was 30.2 µM (≈ 32 µg/mL) and the MIC [15] was 121 µM (≈ 128 µg/mL). For the same compound, the “Ratio IC50” value [16] was 1.71, the pIC50 [17] was 4.38 and the MIC [18] was 121 µM (≈ 128 µg/mL). For the same compound, the MIC [19] was 30.2 µM (≈ 32 µg/mL), the pIC50 [20] was 4.54 and the pIC50 [21] was 4.48. It also gave an MIC [22] of 30.2 µM (≈ 32 µg/mL), an MIC [23] of 121 µM (≈ 128 µg/mL) and an MIC [24] of 30.2 µM (≈ 32 µg/mL). The MIC [25] was 60.4 µM (≈ 64 µg/mL), the MIC [26] was 242 µM (≈ 256 µg/mL) and the MIC [27] was 242 µM (≈ 256 µg/mL). The “Selectivity Index” value [28] was 0.98, the MIC [29] was 60.4 µM (≈ 64 µg/mL) and the MIC [30] was 60.4 µM (≈ 64 µg/mL). The MIC [31] was 60.4 µM (≈ 64 µg/mL), the MIC [32] was 60.4 µM (≈ 64 µg/mL) and the pIC50 [33] was 4.15. For the same compound, the MIC [34] was 242 µM (≈ 256 µg/mL), the MIC [35] was 30.2 µM (≈ 32 µg/mL) and the MIC [36] was 30.2 µM (≈ 32 µg/mL). For the same compound, the “inhibition (INH)” value [37] was 20%, the MIC [38] was 30.2 µM (≈ 32 µg/mL) and the MIC [39] was 30.2 µM (≈ 32 µg/mL). It also gave a pIC50 [40] of 4.52 and an MIC [41] of 30.2 µM (≈ 32 µg/mL).
For `CC[C@@H](C(=O)[C@@H](C)[C@@H](O)[C@H](C)[C@@H]1O[C@@H]([C@@H](CC)C(=O)OC[C@H]2O[C@@H](n3cc(F)c(=O)[nH]c3=O)C[C@@H]2O)CC[C@@H]1C)[C@H]1O[C@]2(C=C[C@@H](O)[C@]3(CC[C@@](C)([C@H]4CC[C@](O)(CC)[C@H](C)O4)O3)O2)[C@H](C)C[C@@H]1C`, the MIC [1] was 32.7 µM (≈ 32 µg/mL), the “Selectivity Index” value [2] was 87.24 and the “Ratio IC50” value [42] was 7.62. The “Selectivity Index” value [3] was 34.71, the pIC50 [4] was 5.70 and the “Selectivity Index” value [5] was 22.11. The MIC [6] was 32.7 µM (≈ 32 µg/mL), the “Selectivity Index” value [7] was 14.35 and the MIC [8] was 8.17 µM (≈ 8 µg/mL). It also gave an MIC [9] of 32.7 µM (≈ 32 µg/mL), an MIC [10] of 8.17 µM (≈ 8 µg/mL) and a pIC50 [11] of 4.49. For the same compound, the MIC [12] was 4.09 µM (≈ 4 µg/mL), the “Selectivity Index” value [13] was 16.22 and the MIC [14] was 32.7 µM (≈ 32 µg/mL). For the same compound, the MIC [15] was 8.17 µM (≈ 8 µg/mL), the “Ratio IC50” value [16] was 0.64 and the “Selectivity Index” value [43] was 11.45. The pIC50 [17] was 5.84, the MIC [18] was 16.3 µM (≈ 16 µg/mL) and the MIC [19] was 8.17 µM (≈ 8 µg/mL). It also gave a pIC50 [20] of 6.43, a pIC50 [21] of 5.65 and an MIC [22] of 8.17 µM (≈ 8 µg/mL). It also gave an MIC [23] of 32.7 µM (≈ 32 µg/mL), an MIC [24] of 4.09 µM (≈ 4 µg/mL) and an MIC [25] of 32.7 µM (≈ 32 µg/mL). The MIC [26] was 8.17 µM (≈ 8 µg/mL), the MIC [27] was 8.17 µM (≈ 8 µg/mL) and the “Selectivity Index” value [28] was 15.98. It also gave an MIC [29] of 8.17 µM (≈ 8 µg/mL), an MIC [30] of 32.7 µM (≈ 32 µg/mL) and an MIC [31] of 32.7 µM (≈ 32 µg/mL). The MIC [32] was 32.7 µM (≈ 32 µg/mL), the pIC50 [33] was 6.03 and the MIC [34] was 8.17 µM (≈ 8 µg/mL). It also gave an MIC [35] of 32.7 µM (≈ 32 µg/mL), an MIC [36] of 4.09 µM (≈ 4 µg/mL) and a pIC50 ([37]; Homo sapiens, HL60/vinc, 72 h) of 5.55. For the same compound, the MIC [38] was 4.09 µM (≈ 4 µg/mL), the MIC [39] was 32.7 µM (≈ 32 µg/mL) and the pIC50 [40] was 5.69. The MIC [41] was 8.17 µM (≈ 8 µg/mL).
